Earlier results, collected in the PKSmart pharmacokinetics tables (Seal et al. 2025).
Where a SMILES comes first, the peptide text is derived from it. Bridges are numbered along the chain shown (N, C = ends). [ ]: non-standard residue; d: D form. ξ: configuration not given here. ξ2Nal = NC(Cc1ccc2ccccc2c1)C(=O)O; ξW = NC(Cc1c[nH]c2ccccc12)C(=O)O; ξThr(3R) = C[C@@H](O)C(N)C(=O)O; ξY = NC(Cc1ccc(O)cc1)C(=O)O; ξK = NCCCCC(N)C(=O)O; ξV = CC(C)C(N)C(=O)O; ξC = NC(CS)C(=O)O

Experiment: Lombardo, Berellini, Obach 2018, Drug Metab Dispos 46:1466, doi 10.1124/dmd.118.082966
Details: human; for MRT / Vd / half-life / clearance: in vivo, iv; for fraction unbound: plasma

SMILES | MRT | Vd | half-life | fraction unbound | clearance
O=C(c1ccc(OCCN2CCCCC2)cc1)c1c(-c2ccc(O)cc2)sc2cc(O)ccc12 | 11.6 h | 7.5 L/kg | 12.1 h | 0.05 | 
CC(=O)N(CC(O)CO)c1c(I)c(C(=O)NCC(O)CO)c(I)c(C(=O)NCC(O)CO)c1I (stereo not drawn) | 1.3 h | 0.16 L/kg | 1.5 h | 1 | 2 mL/min/kg
CN(C)N=Nc1nc[nH]c1C(N)=O | 7.8 h | 1.2 L/kg | 6.2 h | 1 | 2.6 mL/min/kg
C[C@H](CCc1ccccc1)NC[C@H](O)c1ccc(O)c(C(N)=O)c1 | 2.8 h |  | 3.3 h |  | 29 mL/min/kg
C[C@@](O)(/C=C/[C@H]1CC=CC(=O)O1)[C@@H](C[C@@H](O)\C=C/C=C\C=C\CO)OP(=O)(O)O | 1.2 h | 0.086 L/kg | 1.5 h |  | 1.2 mL/min/kg
Nc1ccncc1 | 4.7 h | 2.6 L/kg | 3.6 h | 1 | 9.3 mL/min/kg
O=c1[nH]cnc2c([C@@H]3N[C@H](CO)[C@@H](O)[C@H]3O)c[nH]c12 |  |  | 11.6 h |  | 1.56 mL/min/kg
CCOc1ncc(S(=O)(=O)N2CCN(CC)CC2)cc1-c1nc(=O)c2nn(CCOC)c(CC)c2[nH]1 | 2.8 h | 2.4 L/kg | 4 h |  | 14.3 mL/min/kg
CCC(=O)C1(c2cccc(O)c2)CCN(C)CC1 | 0.87 h | 0.48 L/kg | 2.3 h |  | 9.2 mL/min/kg
CC(C)C1NC(=O)C(CCCCN)NC(=O)C(Cc2c[nH]c3ccccc23)NC(=O)C(Cc2ccc(O)cc2)NC(=O)C(NC(=O)C(N)Cc2ccc3ccccc3c2)CSSCC(C(=O)NC(C(N)=O)[C@@H](C)O)NC1=O (stereo partly drawn) (H-[ξ2Nal][ξC][ξY][ξW][ξK][ξV][ξC][ξThr(3R)]-NH2; disulfide 2-7) | 0.57 h | 0.2 L/kg | 1.03 h |  | 5.7 mL/min/kg
COc1cc(C2c3cc4c(cc3C(OC3OC5COC(C)OC5C(O)C3N(C)C)C3COC(=O)C23)OCO4)cc(OC)c1O (stereo not drawn) | 17 h | 0.3 L/kg | 14 h | 0.013 | 0.4 mL/min/kg
O=C(/C=C/c1ccc(O)c(O)c1)O[C@@H]1C[C@](O)(C(=O)O)C[C@@H](OC(=O)/C=C/c2ccc(O)c(O)c2)[C@H]1O | 1.05 h | 4.82 L/kg | 3.17 h |  | 75.8 mL/min/kg
COc1cc2c(cc1OC)C(Cc1cc(OC)c(OC)c(OC)c1)[N+](C)(CCCOC(=O)CC/C=C/CCC(=O)OCCC[N+]1(C)CCc3cc(OC)c(OC)cc3C1Cc1cc(OC)c(OC)c(OC)c1)CC2 (stereo not drawn) | 0.87 h | 0.27 L/kg | 0.83 h | 0.7 | 5.2 mL/min/kg
O=C(O[C@H]1C[C@H]2CC3C[C@@H](C1)N2CC3=O)c1c[nH]c2ccccc12 | 0.19 h | 2 L/kg | 0.13 h | 0.49 | 
CCOC(=O)N[C@@H]1CC[C@@H]2[C@H](CC3C(=O)O[C@H](C)[C@H]3[C@H]2/C=C/c2ccc(-c3cccc(F)c3)cn2)C1 (stereo partly drawn) | 183 h | 3.74 L/kg | 149 h | 0.01 | 0.34 mL/min/kg
COc1ccc(/C=C\c2cc(OC)c(OC)c(OC)c2)cc1NC(=O)C(N)CO (stereo not drawn) | 0.32 h | 0.44 L/kg | 0.26 h |  | 22.6 mL/min/kg
Cc1nnc(C(C)C)n1C1C[C@H]2CC[C@@H](C1)N2CC[C@@H](NC(=O)C1CCC(F)(F)CC1)c1ccccc1 (stereo partly drawn) | 4.2 h |  | 12.8 h |  | 

SMILES | MRT | Vd | half-life | fraction unbound | clearance
CCC1=C[C@@H]2CN(CCc3c([nH]c4ccccc34)[C@@](C(=O)OC)(c3cc4c(cc3OC)N(C)[C@H]3[C@@](O)(C(=O)OC)[C@H](OC(C)=O)[C@]5(CC)C=CCN6CC[C@]43[C@@H]65)C2)C1 | 17 h | 12 L/kg | 18 h |  | 12 mL/min/kg
COc1ccc2[n-]c([S@+](O)Cc3ncc(C)c(OC)c3C)nc2c1 | 0.9 h | 0.2 L/kg | 0.83 h | 0.03 | 3.85 mL/min/kg
CCCCC[C@H](O)/C=C/[C@@H]1C(CCCCCCC(=O)O)C(=O)C[C@H]1O (stereo partly drawn) | 0.9 h | 2.4 L/kg | 1.9 h |  | 45.4 mL/min/kg
Cc1ncc([N+](=O)[O-])n1CC(O)CN1CCOCC1 (stereo not drawn) | 7.9 h | 0.75 L/kg | 6.2 h |  | 1.6 mL/min/kg
O=C1CN=C(c2ccccn2)c2cc(Br)ccc2N1 | 28 h | 0.85 L/kg | 21 h |  | 0.51 mL/min/kg
Nc1nc(=O)n([C@H]2C[C@H](O)[C@@H](CO)O2)cc1F | 2.98 h | 0.91 L/kg | 0.78 h |  | 5.09 mL/min/kg
COc1ccc(CC(NC(=O)CC(C)(C)N)C(=O)NC(Cc2c[nH]cn2)C(=O)N[C@@H](CC2CCCCC2)[C@@H](O)[C@@H](O)CC(C)C)cc1 (stereo partly drawn) | 3.1 h | 0.11 L/kg | 1.72 h | 0.07 | 0.45 mL/min/kg
CC(C)=CCN1Cc2cc(Cl)cc3[nH]c(=S)n(c23)C[C@@H]1C | 35.2 h | 22 L/kg | 26 h |  | 10.4 mL/min/kg
c1ccc(CN(CC2=NCCN2)c2ccccc2)cc1 | 3.45 h | 3.9 L/kg | 2.29 h |  | 19.7 mL/min/kg
CC1(C)S[C@@H]2C(NC(=O)C(NC(=O)NC(=N)N)c3ccccc3)C(=O)N2C1C(=O)O (stereo partly drawn) | 2.5 h | 0.24 L/kg | 2.09 h | 0.8 | 1.6 mL/min/kg
CCOP(=O)(OCC)[C@@H](NC(=O)[C@]1(O)[C@@H](O)[C@@]2(CC)C=CCN3CC[C@]4(c5cc([C@@]6(C(=O)OC)C[C@H]7C[N@@](CCc8c6[nH]c6ccccc86)C[C@@](O)(CC)C7)c(OC)cc5N(C)[C@@H]14)[C@@H]32)C(C)C | 22.2 h | 4.67 L/kg | 34.3 h | 0.1 | 3.5 mL/min/kg
Cc1ccc(Nc2nccc(N(C)c3ccc4c(C)n(C)nc4c3)n2)cc1S(N)(=O)=O | 44.4 h | 0.16 L/kg |  | 0.01 | 0.06 mL/min/kg
CC(=O)NC(CSSCC(N)C(=O)O)C(=O)NC(C)C(=O)NC(CCCNC(=N)N)C(=O)NC(CCCNC(=N)N)C(=O)NC(CCCNC(=N)N)C(=O)NC(C)C(=O)NC(CCCNC(=N)N)C(N)=O (stereo not drawn) | 19.9 h | 1.98 L/kg |  |  | 1.67 mL/min/kg
CCCOC(C(=O)OC1CCN(C)CC1)(c1ccccc1)c1ccccc1 | 15.4 h | 2.73 L/kg | 15.2 h | 0.1 | 2.94 mL/min/kg
CN(C)CC/C=C1/c2ccccc2Sc2ccc(Cl)cc21 | 20.7 h | 13.7 L/kg | 25.8 h |  | 11.5 mL/min/kg
CC(c1nc(-c2ccc(C#N)cc2)cs1)[C@@](O)(Cn1cncn1)c1cc(F)ccc1F (stereo partly drawn) | 106 h | 5.37 L/kg | 86.9 h | 0.01 | 0.85 mL/min/kg
